Biological target: PIK3CA (human) (UniProt P42336)
Assay: Assessment of PIK3CA Kinase Activity

PIK3CA (human), sequence (P42336 whole entry, looked up): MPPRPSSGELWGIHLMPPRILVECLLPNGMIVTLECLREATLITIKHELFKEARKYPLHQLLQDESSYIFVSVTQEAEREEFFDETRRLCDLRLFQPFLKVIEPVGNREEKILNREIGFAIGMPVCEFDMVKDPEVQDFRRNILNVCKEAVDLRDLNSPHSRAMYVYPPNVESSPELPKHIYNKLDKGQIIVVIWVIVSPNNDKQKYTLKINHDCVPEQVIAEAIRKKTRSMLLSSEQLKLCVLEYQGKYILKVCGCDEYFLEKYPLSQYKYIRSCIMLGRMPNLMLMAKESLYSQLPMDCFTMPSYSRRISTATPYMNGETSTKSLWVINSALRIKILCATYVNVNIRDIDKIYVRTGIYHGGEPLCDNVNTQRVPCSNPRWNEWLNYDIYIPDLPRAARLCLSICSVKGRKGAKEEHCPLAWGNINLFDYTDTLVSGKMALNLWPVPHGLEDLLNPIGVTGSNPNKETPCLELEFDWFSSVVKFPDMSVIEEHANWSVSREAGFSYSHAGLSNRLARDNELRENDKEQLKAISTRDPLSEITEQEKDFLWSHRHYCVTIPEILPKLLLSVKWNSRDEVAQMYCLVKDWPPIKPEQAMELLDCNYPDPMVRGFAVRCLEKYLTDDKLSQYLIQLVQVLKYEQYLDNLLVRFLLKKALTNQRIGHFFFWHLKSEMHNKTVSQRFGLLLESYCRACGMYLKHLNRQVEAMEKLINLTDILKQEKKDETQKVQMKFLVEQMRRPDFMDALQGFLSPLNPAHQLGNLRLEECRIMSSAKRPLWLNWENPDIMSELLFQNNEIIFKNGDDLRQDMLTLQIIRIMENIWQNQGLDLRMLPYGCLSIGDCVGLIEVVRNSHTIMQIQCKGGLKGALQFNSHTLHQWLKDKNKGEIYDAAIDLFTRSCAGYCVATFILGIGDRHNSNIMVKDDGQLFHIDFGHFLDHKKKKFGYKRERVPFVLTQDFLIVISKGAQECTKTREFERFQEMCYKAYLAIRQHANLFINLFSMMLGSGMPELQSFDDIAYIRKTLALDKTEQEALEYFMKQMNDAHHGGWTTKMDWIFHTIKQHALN

| IC50 [nM] | Compound |
| --- | --- |
| 100 to 1000 | COCc1cccc(-c2nc(N3CCOCC3)c3sc(CN(C)c4ncc(C(=O)NO)cn4)cc3n2)c1 |
| < 100 | C#CCCN(Cc1cc2nc(-c3cccc4[nH]ncc34)nc(N3CCOCC3)c2s1)c1ncc(C(=O)NO)cn1 |
| 100 to 1000 | CN(Cc1cc2nc(-c3cccc(N)c3)nc(N3CCOCC3)c2s1)c1ncc(C(=O)NO)cn1 |
| < 100 | CN(Cc1cc2nc(-c3cccc4[nH]ncc34)nc(N3CCOCC3)c2s1)c1ccc(/C=C/C(=O)NO)cc1 |
| 100 to 1000 | O=C(CCCCNc1cc2nc(-c3cccc4[nH]ncc34)nc(N3CCOCC3)c2s1)NO |
| 100 to 1000 | O=C(CCCCCCN1CCN(Cc2cc3nc(-c4cccc5[nH]ncc45)nc(N4CCOCC4)c3s2)CC1)NO |
| 100 to 1000 | CN(Cc1cc2nc(-c3cccc4[nH]ccc34)nc(N3CCOCC3)c2s1)c1ncc(C(=O)NO)cn1 |
| < 100 | Cc1ncc(-c2nc(N3CCOCC3)c3sc(CN(C)c4ncc(C(=O)NO)cn4)cc3n2)cn1 |
| 100 to 1000 | Nc1ccc(-c2nc(N3CCOCC3)c3sc(CN4CCN(c5ncc(C(=O)NO)cn5)CC4)cc3n2)cc1 |
| < 100 | CC(=O)Nc1ccc(-c2nc(N3CCOCC3)c3sc(CN(C)c4ncc(C(=O)NO)cn4)cc3n2)cc1 |
| 100 to 1000 | Cc1ccc(-c2nc(N3CCOCC3)c3sc(CN(C)c4ncc(C(=O)NO)cn4)cc3n2)cc1 |
| < 100 | CN(C)c1ncc(-c2nc(N3CCOCC3)c3sc(CN(C)c4ncc(C(=O)NO)cn4)cc3n2)cn1 |
| 100 to 1000 | CN(Cc1cc2cc(-c3cccc4[nH]ncc34)nc(N3CCOCC3)c2s1)c1ncc(C(=O)NO)cn1 |
| < 100 | N#CCCN(Cc1cc2nc(-c3cccc4[nH]ncc34)nc(N3CCOCC3)c2s1)c1ncc(C(=O)NO)cn1 |
| < 100 | Cn1cc(CNc2cc3nc(-c4cccc5[nH]ncc45)nc(N4CCOCC4)c3s2)c2cc(C(=O)NO)ccc21 |
| < 100 | COC(=O)CN(Cc1cc2nc(-c3cccc4[nH]ncc34)nc(N3CCOCC3)c2s1)c1ncc(C(=O)NO)cn1 |
| 100 to 1000 | O=C(C=Cc1cc2nc(-c3cccc4[nH]ncc34)nc(N3CCOCC3)c2s1)NO |
| < 100 | O=C(NO)c1cnc(N(CCCO)Cc2cc3nc(-c4cccc5[nH]ncc45)nc(N4CCOCC4)c3s2)nc1 |
| 100 to 1000 | O=C(NO)c1ccc(NCc2cc3nc(-c4cccc5[nH]ncc45)nc(N4CCOCC4)c3s2)cc1 |
| 100 to 1000 | CN(Cc1cc2nc(-c3ccccc3CO)nc(N3CCOCC3)c2s1)c1ncc(C(=O)NO)cn1 |
| 100 to 1000 | CS(=O)(=O)N1CCN(Cc2cc3nc(-c4cccc5nn(CCCCC(=O)NO)cc45)nc(N4CCOCC4)c3s2)CC1 |
| < 100 | CN(Cc1cc2nc(-c3ccc4[nH]cnc4c3)nc(N3CCOCC3)c2s1)c1ncc(C(=O)NO)cn1 |

| IC50 [nM] | Compound |
| --- | --- |
| < 100 | O=C(C=Cc1ccc(S(=O)(=O)Nc2cc3nc(-c4cccc5[nH]ncc45)nc(N4CCOCC4)c3s2)cc1)NO |
| 100 to 1000 | O=C(C=Cc1ccc(CNCc2cc3nc(-c4cccc5[nH]ncc45)nc(N4CCOCC4)c3s2)cc1)NO |
| 100 to 1000 | CCN(Cc1cc2nc(-c3ccc(N)cc3)nc(N3CCOCC3)c2s1)c1ncc(C(=O)NO)cn1 |
| < 100 | CN(Cc1cc2nc(-c3cnc(CN)nc3)nc(N3CCOCC3)c2s1)c1ncc(C(=O)NO)cn1 |
| 100 to 1000 | COc1ccccc1Nc1nc(-c2cccc3[nH]ncc23)nc2cc(CN(C)c3ncc(C(=O)NO)cn3)sc12 |
| < 100 | O=C(NO)c1cc2nc(-c3cccc4[nH]ncc34)nc(N3CCOCC3)c2s1 |
| 100 to 1000 | CC1COCC(C)N1c1nc(-c2cccc3[nH]ncc23)nc2cc(CN(C)c3ncc(C(=O)NO)cn3)sc12 (stereo not given) |
| 100 to 1000 | O=C(CCCCCCNc1cc2nc(-c3cccc4[nH]ncc34)nc(N3CCOCC3)c2s1)NO |
| < 100 | CN(CC1CCN(c2ncc(C(=O)NO)cn2)CC1)c1cc2nc(-c3cccc4[nH]ncc34)nc(N3CCOCC3)c2s1 |
| 100 to 1000 | COCCN(CCOC)c1nc(-c2cccc3[nH]ncc23)nc2cc(CN(C)c3ncc(C(=O)NO)cn3)sc12 |
| < 100 | O=C(NO)c1cnc(N2CCC(CNc3cc4nc(-c5cccc6[nH]ncc56)nc(N5CCOCC5)c4s3)CC2)nc1 |
| 100 to 1000 | CC1CN(c2nc(-c3cccc4[nH]ncc34)nc3cc(CN(C)c4ncc(C(=O)NO)cn4)sc23)CC(C)O1 (stereo not given) |
| < 100 | CN(Cc1cc2nc(-c3cnc(N)nc3)nc(N3CCOCC3)c2s1)c1ncc(C(=O)NO)cn1 |
| < 100 | O=C(/C=C/c1ccc(NCc2cc3nc(-c4cccc5[nH]ncc45)nc(N4CCOCC4)c3s2)cc1)NO |
| < 100 | CN(Cc1cc2nc(-c3cccc(O)c3)nc(N3CCOCC3)c2s1)c1ncc(C(=O)NO)cn1 |
| < 100 | CC(=O)OCCN(Cc1cc2nc(-c3cccc4[nH]ncc34)nc(N3CCOCC3)c2s1)c1ncc(C(=O)NO)cn1 |
| < 100 | NC(=O)CN(Cc1cc2nc(-c3cccc4[nH]ncc34)nc(N3CCOCC3)c2s1)c1ncc(C(=O)NO)cn1 |
| 100 to 1000 | CC(C)(Nc1ncc(C(=O)NO)cn1)c1cc2nc(-c3cccc4[nH]ncc34)nc(N3CCOCC3)c2s1 |
| < 100 | O=C(CCCCCCNCc1cc2nc(-c3cccc4[nH]ncc34)nc(N3CCOCC3)c2s1)NO |
| < 100 | CN(Cc1cc2nc(-c3cc[nH]c3)nc(N3CCOCC3)c2s1)c1ncc(C(=O)NO)cn1 |
| 100 to 1000 | CN(Cc1cc2nc(-c3ccc(C(F)(F)F)cc3)nc(N3CCOCC3)c2s1)c1ncc(C(=O)NO)cn1 |
| 100 to 1000 | CN(CCCCCC(=O)NO)Cc1cc2nc(-c3cccc4[nH]ncc34)nc(N3CCOCC3)c2s1 |

| IC50 [nM] | Compound |
| --- | --- |
| < 100 | CC(=O)Nc1ccc(-c2nc(N3CCOCC3)c3sc(CN(C)c4ncc(C(=O)NO)cn4)cc3n2)cn1 |
| 100 to 1000 | CN(Cc1cc2nc(-c3ccc(O)cc3)nc(N3CCOCC3)c2s1)c1ncc(C(=O)NO)cn1 |
| < 100 | CN(Cc1cc2nc(-c3cc(F)cc4[nH]ncc34)nc(N3CCOCC3)c2s1)c1ncc(C(=O)NO)cn1 |
| < 100 | CN(Cc1cc2nc(-c3cccnc3)nc(N3CCOCC3)c2s1)c1ncc(C(=O)NO)cn1 |
| < 100 | CN(C)CCN(Cc1cc2nc(-c3cccc4[nH]ncc34)nc(N3CCOCC3)c2s1)c1ncc(C(=O)NO)cn1 |
| < 100 | CN(Cc1cc2nc(-c3ccc(N)nc3)nc(N3CCOCC3)c2s1)c1ncc(C(=O)NO)cn1 |
| < 100 | CN(CCCCCCC(=O)NO)Cc1cc2nc(-c3cccc4[nH]ncc34)nc(N3CCOCC3)c2s1 |
| 100 to 1000 | Nc1ccc(-c2nc(N3CCOCC3)c3sc(CNc4ncc(C(=O)NO)cn4)cc3n2)cc1 |
| 100 to 1000 | CN(Cc1cc2nc(-c3cccc(C(N)=O)c3)nc(N3CCOCC3)c2s1)c1ncc(C(=O)NO)cn1 |
| 100 to 1000 | Cc1c(CN(C)c2ncc(C(=O)NO)cn2)sc2c(N3CCOCC3)nc(-c3cccc4[nH]ncc34)nc12 |
| < 100 | CN(Cc1cc2nc(-c3cccc4[nH]ncc34)nc(Nc3ccccc3)c2s1)c1ncc(C(=O)NO)cn1 |
| 100 to 1000 | O=C(NO)c1cnc(NCc2cc3cc(-c4cccc5[nH]ncc45)nc(N4CCOCC4)c3s2)nc1 |
| 100 to 1000 | CN(Cc1cc2nc(-c3ccc(N)c(N)c3)nc(N3CCOCC3)c2s1)c1ncc(C(=O)NO)cn1 |
| < 100 | COCCN(Cc1cc2nc(-c3cccc4[nH]ncc34)nc(N3CCOCC3)c2s1)c1ncc(C(=O)NO)cn1 |
| 100 to 1000 | CC(C)CN(Cc1cc2nc(-c3cccc4[nH]ncc34)nc(N3CCOCC3)c2s1)c1ncc(C(=O)NO)cn1 |
| < 100 | O=C(CCCCCN1CCN(Cc2cc3nc(-c4cccc5[nH]ncc45)nc(N4CCOCC4)c3s2)CC1)NO |
| < 100 | CC(c1cc2nc(-c3cccc4[nH]ncc34)nc(N3CCOCC3)c2s1)N(C)c1ncc(C(=O)NO)cn1 (stereo not given) |
| 100 to 1000 | CN(C)c1ccc(-c2nc(N3CCOCC3)c3sc(CN(C)c4ncc(C(=O)NO)cn4)cc3n2)cn1 |
| < 100 | CN(Cc1cc2nc(-c3cccc4[nH]ncc34)nc(N3CCOCC3)c2s1)c1ncc(C=CC(=O)NO)cn1 |
| < 100 | CCCN(Cc1cc2nc(-c3cccc4[nH]ncc34)nc(N3CCOCC3)c2s1)c1ncc(C(=O)NO)cn1 |
| < 100 | CCN(Cc1cc2nc(-c3cccc4[nH]ncc34)nc(N3CCOCC3)c2s1)c1ncc(C(=O)NO)cn1 |
| < 100 | CN(Cc1cc2nc(-c3cncnc3)nc(N3CCOCC3)c2s1)c1ncc(C(=O)NO)cn1 |

| IC50 [nM] | Compound |
| --- | --- |
| 100 to 1000 | CC(C)(C)CN(Cc1cc2nc(-c3cccc4[nH]ncc34)nc(N3CCOCC3)c2s1)c1ncc(C(=O)NO)cn1 |
| 100 to 1000 | CN(CCCC(=O)NO)Cc1cc2nc(-c3cccc4[nH]ncc34)nc(N3CCOCC3)c2s1 |
| 100 to 1000 | CN(Cc1cc2nc(-c3cccc4[nH]ncc34)nc(N3CCCCC3)c2s1)c1ncc(C(=O)NO)cn1 |
| < 100 | O=C(NO)c1ccc(NCc2cc3nc(-c4cccc5[nH]ncc45)nc(N4CCOCC4)c3s2)nc1 |
| 100 to 1000 | CN(CCCCC(=O)NO)Cc1cc2nc(-c3cccc4[nH]ncc34)nc(N3CCOCC3)c2s1 |
| 100 to 1000 | O=C(NO)c1cnc(N2CCC(CNCc3cc4nc(-c5cccc6[nH]ncc56)nc(N5CCOCC5)c4s3)CC2)nc1 |
| 100 to 1000 | CN(Cc1cc2nc(-c3ccc(CN)cc3)nc(N3CCOCC3)c2s1)c1ncc(C(=O)NO)cn1 |
| < 100 | NCCN(Cc1cc2nc(-c3cccc4[nH]ncc34)nc(N3CCOCC3)c2s1)c1ncc(C(=O)NO)cn1 |
| 100 to 1000 | CN(Cc1cc2nc(-c3cccc4[nH]ncc34)nc(NCCO)c2s1)c1ncc(C(=O)NO)cn1 |
| 100 to 1000 | CN(Cc1cc2nc(-c3ccc4[nH]ccc4c3)nc(N3CCOCC3)c2s1)c1ncc(C(=O)NO)cn1 |
| 100 to 1000 | CCCCN(Cc1cc2nc(-c3cccc4[nH]ncc34)nc(N3CCOCC3)c2s1)c1ncc(C(=O)NO)cn1 |
| 100 to 1000 | CN(Cc1cc2nc(-c3cn[nH]c3)nc(N3CCOCC3)c2s1)c1ncc(C(=O)NO)cn1 |
| 100 to 1000 | O=C(CCCCCNc1cc2nc(-c3cccc4[nH]ncc34)nc(N3CCOCC3)c2s1)NO |
| < 100 | CN(Cc1cc2nc(-c3cccc4[nH]ncc34)nc(N3CCOCC3)c2s1)c1ccc(C(=O)NO)cc1 |
| 100 to 1000 | O=C(NO)c1ccc(CNCc2cc3nc(-c4cccc5[nH]ncc45)nc(N4CCOCC4)c3s2)cc1 |
| 100 to 1000 | Nc1ccc(-c2nc(N3CCOCC3)c3sc(CNCc4ccc(/C=C/C(=O)NO)cc4)cc3n2)cc1 |
| < 100 | O=C(NO)c1cnc(N2CCN(S(=O)(=O)c3cc4nc(-c5cccc6[nH]ncc56)nc(N5CCOCC5)c4s3)CC2)nc1 |
| < 100 | Cc1nc2ccc(-c3nc(N4CCOCC4)c4sc(CN(C)c5ncc(C(=O)NO)cn5)cc4n3)cc2[nH]1 |
| 100 to 1000 | CN(Cc1cc2nc(-c3ccc(N)cc3)nc(N3CCOCC3)c2s1)c1ccc(C(=O)NO)cc1 |

— the Kinase Knowledgebase extract (Sharma et al. 2016)
